US20210395406A1, “REVERSIBLE CROSS-LINKING SYSTEM FOR POLYVINYLAMINES” (SOLENIS TECHNOLOGIES, L.P., priority 2020, published 2021)
≈ marks a conversion by molar mass, not a printed value. Counter-ions that a name gives are not always drawn.

Tests used:
[1] = Reversibility of cross-linking by means of pH-change; type: physicochemical; conditions: gel of 3.9 g Example 2.1 at pH 7 crosslinked with 0.075 g OBP, after adding 2 ml hydrochloric acid (10 w %)
Description: 3.9 g Example 2.1 at 7 pH stained with rhodamine B were crosslinked with 0.075 g OBP dissolved in 1 mL water at RT. The cross-linking reaction produces within a few seconds a solid gel. After adding 2 ml of hydrochloric acid (10 w %) it takes about 2 h till the gel is completely liquefied. When setting the pH back to neutral by adding caustic the gel is instantaneously formed again.

[2] = Water solubility of cross-linkers
[3] = Oscillatory shear rheology of PVAm hydrogels cross-linked with OBP; type: physicochemical
Description: To investigate the mechanical properties of the hydrogel and to confirm the formation of cross-linking points from a mechanical point of view, dynamic rheological measurements were performed. Hydrogel samples with a varying degree of cross-linking (DC=n(OBP)/n(Am) [mol %]) in the range of 1-5 mol % and a water content of 94 wt % were analyzed under oscillatory shear. […] All samples show an elastic response over the entire frequency range, with G′ distinctly exceeding G″ by two magnitudes. Additionally, a frequency independent behavior for G′ is observed.
Rheological properties of the hydrogels were analyzed via oscillatory shear experiments on the strain-controlled rotational rheometer Ares G2 (TA Instruments, Eschborn, Germany). Hydrogel samples with a varying degree of cross-linking (DC) between 1 and 5 mol % (DC=n(OBP)/n(Am) [mol %]) were prepared in a cylindrical PTFE mold with a diameter of ˜30 mm to obtain uniform disc-shaped specimens. The cross-linking agent (OBP) was first dissolved in 1 ml H2O and then mixed with 3 ml of the 6.6 wt % PVAm solution. The mold was sealed and the cross-linking reaction was allowed to proceed overnight.
The test geometry was a 30 mm diameter plate made from aluminum. The geometry was lowered until a constant axial force of 0.5 N was applied to the sample and the temperature was controlled to 25±0.1° C. by a Peltier element (Advanced Peltier System, TA Instruments). First, an oscillatory strain sweep was performed with a constant frequency of f=1 Hz by varying the strain from γ0=0.01-1000% to determine the linear viscoelastic (LVE) regime. The values at a strain of γ0=0.1% were chosen to be representative for the LVE regime. Subsequently, frequency sweeps were employed at a fixed strain of 0.1% while the frequency was varied from 0.03 to 100 Hz. To study the self-healing properties, the sample with DC=3 mol % was cut and subsequently cured in a sealed mold at 70° C. for 3 h.

Row | Structure (SMILES) | melting point | time till the gel is completely liquefied [1] | solubility [2] | mechanical strength ([3]; PVAm hydrogels cross-linked with OBP, at higher DC values, water content 94 wt %) | storage modulus ([3]; PVAm/OBP hydrogel DC=3 mol %, after first self-healing cycle) | storage modulus ([3]; PVAm/OBP hydrogel DC=3 mol %, before first self-healing cycle) | decrease of G′ ([3]; PVAm/OBP hydrogel DC=3 mol %, cut and measured directly without curing) | decrease of the storage modulus ([3]; PVAm/OBP hydrogel DC=3 mol %, first self-healing cycle, cut and cured at 70° C. for 3 h)
1 | O=C1CCN(C(=O)C(=O)N2CCC(=O)CC2)CC1 (as salt: hydrochloride) (hydrate or solvate) [Example 1.1, 1,2-bis(4-oxopiperidin-1-yl)ethane-1,2-dione] | 174 °C |  |  |  |  |  |  | 
2 | O=C1CCN(C(=O)C(=O)N2CCC(=O)CC2)CC1 [Example 1.1, 1,2-bis(4-oxopiperidin-1-yl)ethane-1,2-dione] |  | about 2 h | 60 mg/mL (≈ 238 mM) | up to 15 kPa | ~6 kPa | approximately 7 kPa | 42% | 14%
3 | O=C1CCN(C(=O)c2ccc(C(=O)N3CCC(=O)CC3)cc2)CC1 [Example 1.2, 1,1′-Terephthaloylbis(piperidin-4-one)] |  |  | 0.5 mg/mL (≈ 1.52 mM) |  |  |  |  | 
